Test [1] has as its system HIF-1α. The experiment in a line: HIF-1α expressions in the brains of the ischemic rats, Western blot. Type of test: in vivo, Sprague-Dawley (SD) rats. From the text: (§1) The ischemic rats are induced by an ischemia-reperfusion model to simulate transient focal cerebral ischemia in rats. Test animals are male Sprague-Dawley (SD) rats weighing 250-300 g. The rats are anesthetized with chloral hydrate (0.4 g/kg IP) and subjected to cerebral ischemia. The ischemia-reperfusion model is induced by ligations of bilateral common carotid arteries (CCAs) and a right middle cerebral artery (MCA). The bilateral CCAs are clamped with non-traumatic arterial clips, and the right MCA is ligated with an 10-0 nylon suture. After 90 minutes ischemia, the suture on the MCA and the arterial clips on CCAs are removed to allow reperfusion. Core body temperature is monitored with a thermistor probe (Hewlett-Packard Model 21090A probe, Hewlett-Packard Company, Andover, Mass.), and maintained at 37° C. with a heating pad during anesthesia. After recovery from anesthesia, rat body temperature is maintained at 37° C. with a heat lamp.
The ischemia-reperfusion model is established as described above. The ischemic rats are injected intraperitonealy with different dosages of the Compound 1 (0.1 mg/kg, 1 mg/kg and 10 mg/kg) at 4 hours after MCA ligation for three consecutive days. Sham rats undergo same protocol with the exception of the ligation of the bilateral CCAs and the right MCA. The rats only injected a vehicle are used as the control. The ischemic rats are decapitated at 4 hours, 16 hours, 24 hours, 36 hours and 72 hours after the Compound 1 injection. The Bmi-1 expressions and the HIF-1α expressions of the ischemic rats are detected by the Western blot analysis.
The ischemic rats are further treated with 100 mg/kg of the 2-ME2 or stereotaxic injected with the LV-Bmi-1-sh or the LV-control-sh to inhibit the HIF-1α expressions and the Bmi-1 expressions, and then the ischemic rats are treated with 1 mg/kg of the Compound 1. The effect of the administration of the Compound 1 on the Bmi-1 expressions in the brains of the ischemic rats which are reduced the Bmi-1 expressions or the HIF-1α expressions are detected by the Western blot analysis.
For orientation: Immunoblotting shows a protein as a band on a membrane.

The subject of test [2] is ischemic rats. Briefly: Body swing test. Type of test: in vivo, Sprague-Dawley (SD) rats. Particulars: 1 mg/kg, vs control group; 1, 7, 14 and 28 days after the injection, FIG. 19A.
Source text: as §1, with “lamp. […]” for “lamp.”
The body swing test is used to assess body asymmetry after MCA ligation. Initially, the ischemic rats are suspended by their tail 10 cm above the cage floor, and lateral body movements are recorded. Specifically, the frequency with which the initial head swing contra-lateral to the ischemic side is counted in twenty consecutive tests and is normalized to the baseline score.

Data on 1 compound can be found in patent US10035791B2, “Bicyclic compound and pharmaceutical composition thereof for treating stroke and use thereof” (China Medical University, priority 2016, dated 2018).

With `COC(=O)C1=CO[C@@H](O)[C@@H]2C(COC(=O)[C@@H](N)Cc3ccccc3)=CC[C@H]12` [Compound 1], the “treatment time with the highest HIF-1α expression” value in test [1] (1 mg/kg, 4 to 72 hours after injection, FIG. 13A) was determined as 4 h. The “HIF-1α expressions in the brains of the ischemic rats” value in test [1] (0.1, 1, 10 mg/kg intraperitoneal, vs control and sham rats, FIGS. 13A, 13B) is “significantly increases”. Also, the “dosage with the highest HIF-1α expression” value in test [1] (0.1, 1, 10 mg/kg tested, 36 hours, FIG. 13B) worked out at 1 mg/kg. Also, in test [2], the “neurological recovery in the body swing test” value is “much more neurological recovery”.
